Experimental findings from patent US20210087593A1, “N-[…] ALKALOID COMPOUNDS” (Willow BioSciences Inc., priority 2017, published 2021) are described below.

For one test, the system named is PsRNMT. Nature of the test: N-alkylation substrate screen using PsRNMT (LC-MS). The test is classed as biochemical, Papaver somniferum. Also noted: key: −=no detectable quantities of product N-alkylated compound; Trace, +, ++, +++=increasing relative levels of product N-alkylated compound; Trace, +, ++, +++=increasing relative levels of product N-alkylated compound; Trace, +, ++, +++=increasing relative levels of product N-alkylated compound; Trace, +, ++, +++=increasing relative levels of product N-alkylated compound. The conditions noted are these: 25 μg protein, 1 mM substrate, 1 mM SAM, 60 mM HEPES pH 8, 16 hours at 37° C.; relative level of N-alkylated product by LC-MS. On the procedure: (§1) The GfCNMT, GfTNMT and PsRNMT coding sequences were amplified from Glaucium flavum (GfCNMT and GfTNMT) or Papaver somniferum (PsRNMT) cDNA using gene-specific primers containing attB recombination sites with Q5 HiFi DNA polymerase (NEB). Recombination reactions were carried out using BP and LR Clonase II (Thermo Scientific) to generate individual pDONR221 entry plasmids and, subsequently, individual pHGWA plasmids for heterologous expression of polyhistidine (HIS6)-tagged recombinant GfCNMT, GfTNMT and PsRNMT. Protein overexpression was carried out at 18° C. using E. coli ArcticExpress (Agilent) grown in Studier's autoinduction media.
(§2) Total soluble protein was extracted from each culture and the recombinant NMTs were purified using TALON cobalt affinity resin (Clontech) followed by desalting and concentration with Amicon Ultra-30 centrifugal filters (EMD Millipore). Protein concentration was determined using the Bradford method, and purity was assessed by SDS-PAGE followed by Coomassie staining.
(§3) Forty-four nitrogenous molecules were screened as potential substrates for EsNMT using a standardized assay (25 μg protein, 1 mM substrate, 1 mM SAM, 60 mM HEPES pH 8, 16 hours at 37° C.). In addition, a representative subset was screened as potential substrates for GfCNMT, GfTNMT and PsRNMT under identical conditions. For each substrate and enzyme combination, negative control assays were carried out using protein heated to 100° C. (boiled) for 20 minutes. Assays were quenched with 9 volumes of methanol, centrifuged to pellet insoluble debris and the supernatants were stored at −20° C. prior to analysis.
(§4) Assay supernatants were analyzed by liquid chromatography-mass spectrometry (LC-MS). LC-MS analysis was performed using a 1200 HPLC coupled with a 6410 triple-quadrupole MS (Agilent). Samples (2 μl) were injected onto a Luna […] Phenyl-Hexyl 100 Å HPLC column and analytes were eluted in a gradient of solvent A (0.1% Formic acid, 5% v/v methanol in water) and solvent B (0.1% Formic acid in methanol) at a flow rate of 300 μl per minute. The gradient began at 0% B, reached 35% B by 12 minutes, then increased to 85% B at 14 min and remained at that level until 18 minutes. Subsequently, the mixture returned to 0% B over a period of 3 minutes before a final 6 minute re-equilibration period. Analytes were applied to the mass analyzer using an electrospray ionization probe operating in positive mode with the following condition: capillary voltage, 4000V; fragmentor voltage, 100V, source temperature, 350° C.; nebulizer pressure, 50 PSI; gas flow 10 L/min. Ions were detected in full scan mode where quadrupoles 1 and 2 were set to RF only, whereas the third quadrupole scanned from 100-500 m/z over 525 milliseconds. Substrate acceptance by the enzymes was determined according to the formation of a peak with a 14-m/z increase in mass, corresponding to methylated substrate and a decrease in the substrate peak area, relative to the appropriate boiled control assay.
(§5) Each of the alkaloid substrates shown in Table 1 were incubated with the following N-alkyltransferases: GfCNMT (SEQ. ID NO: 3), gfTNMT (SEQ. ID NO: 4) and Ps RNMT ([…]) and EsNMT (SEQ. ID NO: 2), as described in Example 1. The presence of N-alkylated alkaloid product was detected as described in Examples 1-20. Legend: ND=Not Determined; −=no detectable quantities of product N-alkylated compound; and Trace, +, ++, +++=increasing relative levels of product N-alkylated compound.

The subject of the next test is EsNMT. Briefly: N-alkylation substrate screen using EsNMT (LC-MS). It counts as biochemical, Ephedra sinica. Also noted: key to N-alkylation of substrate alkaloid compounds, Enzyme EsNMT: −=no detectable quantities of product N-alkylated compound; Trace, +, ++, +++=increasing relative levels of product N-alkylated compound; Trace, +, ++, +++=increasing relative levels of product N-alkylated compound; Trace, +, ++, +++=increasing relative levels of product N-alkylated compound; Trace, +, ++, +++=increasing relative levels of product N-alkylated compound. The conditions noted are these: for N-alkylation of substrate alkaloid compounds, Enzyme EsNMT: 25 μg protein, 1 mM substrate, 1 mM SAM, 60 mM HEPES pH 8, 16 hours at 37° C., relative level of N-alkylated product by LC-MS. The method, then:
The EsNMT coding sequence was amplified from Ephedra sinica cDNA using gene-specific primers containing restriction sites with Q5 HiFi DNA polymerase (NEB). Restriction digests and ligations (NEB) were carried out to generate a pQE plasmid (Qiagen) for heterologous expression of HIS6-tagged recombinant EsNMT. Protein overexpression was carried out at 18° C. in Escherichia coli SG13009 (Qiagen) grown in lysogeny broth (LB) to which 0.5 mM isopropyl β-D-1-thiogalactopyranoside (IPTG) was added.
as §2, §3, §4, §5

The test system of a further test is GfTNMT. Briefly: N-alkylation substrate screen using GfTNMT (LC-MS). It counts as biochemical, Glaucium flavum. The conditions noted are these: 25 μg protein, 1 mM substrate, 1 mM SAM, 60 mM HEPES pH 8, 16 hours at 37° C.; relative level of N-alkylated product by LC-MS. Also on record: key: −=no detectable quantities of product N-alkylated compound; Trace, +, ++, +++=increasing relative levels of product N-alkylated compound; Trace, +, ++, +++=increasing relative levels of product N-alkylated compound; Trace, +, ++, +++=increasing relative levels of product N-alkylated compound; Trace, +, ++, +++=increasing relative levels of product N-alkylated compound. The method, then: as §1, §2, §3, §4, §5

In the next test the test system is GfCNMT. Nature of the test: N-alkylation substrate screen using GfCNMT (LC-MS). The test is classed as biochemical, Glaucium flavum. Also noted: key: −=no detectable quantities of product N-alkylated compound; Trace, +, ++, +++=increasing relative levels of product N-alkylated compound; Trace, +, ++, +++=increasing relative levels of product N-alkylated compound; Trace, +, ++, +++=increasing relative levels of product N-alkylated compound; Trace, +, ++, +++=increasing relative levels of product N-alkylated compound. The conditions noted are these: 25 μg protein, 1 mM substrate, 1 mM SAM, 60 mM HEPES pH 8, 16 hours at 37° C.; relative level of N-alkylated product by LC-MS. On the procedure:
as §1, §2, §3, §4, §5

In the case of `CC(N)Cc1ccccc1` (stereo not drawn) [Amphetamine, amphetamine, reference compound], the “N-alkylation of substrate alkaloid compounds, Enzyme PsRNMT” value (“N-alkylation … Enzyme PsRNMT” below) in the test with PsRNMT is “−”. In addition, in the test on EsNMT, the “N-alkylation of substrate alkaloid compounds, Enzyme EsNMT” value (from here on “N-alkylation … Enzyme EsNMT”) was “+”. In the test with GfTNMT, the “N-alkylation of substrate alkaloid compounds, Enzyme GfTNMT” value (from here on “N-alkylation … Enzyme GfTNMT”) is “Trace”. Also, the “N-alkylation of substrate alkaloid compounds, Enzyme GfCNMT” value (shortened to “N-alkylation … Enzyme GfCNMT”) in the test on GfCNMT is “Trace”.

For the compound `COc1ccc(C[C@H]2c3cc(O)c(OC)cc3CCN2C)cc1O` [S-Reticuline, reticuline], the “N-alkylation … Enzyme PsRNMT” value with PsRNMT was “+++”. In addition, in the test on EsNMT, the “N-alkylation … Enzyme EsNMT” value is given as “+”. The “N-alkylation … Enzyme GfTNMT” value with GfTNMT is “++”. For the same compound, the “N-alkylation … Enzyme GfCNMT” value with GfCNMT is on record as “+”.

In the case of `COc1ccc2c(c1OC)C(=O)O[C@@H]2[C@H]1c2c(cc3c(c2OC)OCO3)CCN1C` [Noscapine, noscapine, reference compound], in the test on PsRNMT, the “N-alkylation … Enzyme PsRNMT” value is reported as “++”. Further, in the test with EsNMT, the “N-alkylation … Enzyme EsNMT” value is “−”. Also, the “N-alkylated alkaloid product detected after incubation with EsNMT (SEQ. ID NO: 2)” value in the test on EsNMT (incubated in accordance with Example 1, LC-MS) is given as “No N-alkylated alkaloid product compounds were detected”. Moreover, the “N-alkylation … Enzyme GfTNMT” value in the test on GfTNMT is listed as “+++”. The “N-alkylation … Enzyme GfCNMT” value with GfCNMT is recorded as “Trace”.

Turning to `COc1ccc2c3c([nH]c2c1)C(C)=NCC3` [Harmaline, harmaline], in the test with PsRNMT, the “N-alkylation … Enzyme PsRNMT” value is “−”. In addition, the “N-alkylation … Enzyme EsNMT” value in the test on EsNMT is “+”. Further, the “N-alkylation … Enzyme GfTNMT” value with GfTNMT was “−”. In addition, the “N-alkylation … Enzyme GfCNMT” value in the test with GfCNMT is “+”.

Take `CC(N)C(O)c1ccccc1` (stereo not drawn) [Norephedrine, norephedrine]: the “N-alkylation … Enzyme PsRNMT” value in the test with PsRNMT was “−”. Further, the “N-alkylation … Enzyme EsNMT” value in the test with EsNMT is “+”. For the same compound, the “N-alkylation … Enzyme GfTNMT” value with GfTNMT is given as “−”. In addition, the “N-alkylation … Enzyme GfCNMT” value in the test with GfCNMT is listed as “−”.
